This is an account of results in paper PMC2857669 (Biochemistry, 2009).

For data set [1], the target named is T1, ferrous heme-hHO-1 (Homo sapiens, UniProt P09601).
T1 sequence (P09601 1-265 limits assumed): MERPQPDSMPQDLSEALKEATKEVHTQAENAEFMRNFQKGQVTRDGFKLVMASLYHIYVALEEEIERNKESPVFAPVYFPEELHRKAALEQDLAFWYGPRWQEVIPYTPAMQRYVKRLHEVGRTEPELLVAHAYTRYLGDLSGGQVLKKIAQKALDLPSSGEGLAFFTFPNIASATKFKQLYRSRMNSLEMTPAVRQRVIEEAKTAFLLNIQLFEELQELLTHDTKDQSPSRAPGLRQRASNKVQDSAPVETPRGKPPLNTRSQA
The conditions noted are these: cited from earlier work.

Data set [2] concerns verdoheme-HO-1 complex. The conditions noted are these: in the presence of reductant; cited from earlier work.
Data set [3] deals with HO. The conditions noted are these: cited from earlier work.
The target of data set [4] is T2, hHO-1 (Homo sapiens, UniProt P09601).
T2 sequence (P09601 1-265 limits assumed): T1 sequence (P09601 1-265 limits assumed)
Description: biochemical.

For data set [5], the target named is HO. To be noted: cited from earlier work. The source holds these as a separate data set.
Data set [6] can be described thus: Solubility in aqueous solutions. Type of data set: physicochemical.
Data set [7] has as its target T3, hHO-2 (Homo sapiens, UniProt P30519).
T3 sequence (P30519 2-295 limits assumed): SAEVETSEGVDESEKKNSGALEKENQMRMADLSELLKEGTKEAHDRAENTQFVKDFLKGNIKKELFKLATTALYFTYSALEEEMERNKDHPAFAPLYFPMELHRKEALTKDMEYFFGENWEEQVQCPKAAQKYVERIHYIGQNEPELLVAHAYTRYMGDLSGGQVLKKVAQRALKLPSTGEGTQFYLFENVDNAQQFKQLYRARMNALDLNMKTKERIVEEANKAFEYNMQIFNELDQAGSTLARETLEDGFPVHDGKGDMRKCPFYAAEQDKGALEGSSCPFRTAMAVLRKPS
The data set is described as follows: biochemical.

Data set [8] deals with T4, ferric verdoheme-hHO-1 (Homo sapiens, UniProt P09601).
T4 sequence (P09601 1-265 limits assumed): T1 sequence (P09601 1-265 limits assumed)
Description: biochemical. Type of data set: binding.

The target of data set [9] is T5, heme-hHO-1 (Homo sapiens, UniProt P09601).
T5 sequence (P09601 1-265 limits assumed): T1 sequence (P09601 1-265 limits assumed)
The data set is described as follows: biochemical.

Data set [10] has as its target T5, heme-hHO-1. Type of data set: binding. The conditions noted are these: ferric heme-hHO-1.
Data set [11] concerns the target T1, ferrous heme-hHO-1. The data set is described as follows: biochemical. In kind it is binding.
In data set [12] the target is CaHmx1 (Candida albicans, UniProt Q5AB97). Type of data set: binding. The conditions noted are these: read-out: estimate of the KD; ferric CaHmx1; no full saturation up to 7 mM.

Values after ≈ are worked out from the molar mass of the structure shown. Where two headings read alike, the source gives them in different places.

As usually defined, the Kd is the free concentration of one partner at which half of the binding sites on the other are occupied at equilibrium, for simple one-to-one binding. For `O=O` [O2], in data set [1], the Kd is 0.04 µM, the association rate constant was 6.9e+06 M⁻¹ s⁻¹ and the dissociation rate was 0.25 s⁻¹. Further, in data set [2], the “estimated rate constant of reaction with O2” value was 250 M⁻¹ s⁻¹.

A word on the Km: it is the substrate concentration at which the rate is half of its maximum. In the case of iron protoporphyrin IX [heme], the Kd in [3] was 0.8 ± 0.2 µM. In addition, the Km in data set [4] (read-out: Km for heme, global fit to uncompetitive inhibition) amounted to 0.005 ± 0.001 mM.

Broadly, the Ki is a measure of affinity in units of concentration, obtained from inhibition or displacement. In the case of `C=Cc1c2[n-]c(c1C)/C=c1\[n-]/c(c(C)c1C=C)=C\c1[n-]c(c(CCC(=O)O)c1C)C=c1[n-]/c(c(C)c1CCC(=O)O)=C\2.[Sn+4]` [Sn-heme], in data set [5], the Ki is 0.011 µM.

As for `[C-]#[O+]` [CO, carbon monoxide], in data set [1], the Kd is 0.01 µM, the association rate constant was 900000 M⁻¹ s⁻¹ and the dissociation rate is 0.009 s⁻¹.

Usually solubility stands for the dissolved amount per volume that the medium holds. Lower therefore signals little dissolved substance. Broadly, the IC50 is the concentration that inhibits the measured activity by half. Low values mean greater potency in that assay, high ones weaker potency in that assay. One may read the koff as the rate constant with which the complex falls apart. As to `[C-]#[N+]CCCC` [n-butyl isocyanide], the concentration in solution in data set [6] (solubility) was 6 mM (≈ 499 µg/mL). Also, the IC50 in [7] is 0.34 ± 0.02 µM; in [9], around 45 µM; in [4], 0.25 ± 0.01 µM. Besides, the Kd in data set [8] worked out at 17 ± 3 µM; in data set [11], 0.12 µM. Besides, the “fold higher affinity than ferric heme-hHO-1” value in data set [8] (ferric verdoheme-hHO-1 versus ferric heme-hHO-1) came to 2 fold. Moreover, in data set [10], the “fold higher affinity than isopropyl isocyanide” value is recorded as 9 fold. In addition, the koff in [11] (read-out: dissociation rate (koff)) came to 0.52 s⁻¹.

In the case of `[C-]#[N+]C(C)C` [isopropyl isocyanide], the IC50 in data set [7] stood at 1.17 ± 0.06 µM; in data set [4] it was 0.72 ± 0.08 µM. Besides, the Kd was 440 ± 75 µM in data set [8] (ferric verdoheme-hHO-1 generated with one equivalent H2O2) and 3800 µM in [12]. Besides, in data set [11] (ferrous heme-hHO-1, 20 °C, anaerobic), the “association rate constant (kon)” value turned out to be 1.3e+06 M⁻¹ s⁻¹.
